From US12082933B2, “Methods of using brain temporal dynamics” (priority 2016, dated 2024)

Tests used:
[1] = six months of treatment; specifically in younger adults; cited from earlier work
[2] = Open-label 8-week escitalopram treatment trial, depressive symptoms by MADRS; assay type: in vivo, human; conditions: escitalopram 10-20 mg daily, week 8
From the text: 95 participants were included in this study. Data were collected as part of the CAN-BIND 1 project (Lam et al., 2016). Participants were outpatients aged 18-60 years of age, and met DSM-IV-TR (2000) criteria for major depressive episode (MDE) in MDD, confirmed by the Mini international Neuropsychiatric inventory (MINI) (Sheehan et al., 1998). Data were gathered across four study sites: University Health Network, Centre for Addiction and Mental Health in Toronto, Queen's University in Kingston, Ontario, Canada, and University of British Columbia in Vancouver, British Columbia, Canada. Study procedures were approved by research ethics institutional review boards at each site. All participants signed written informed consent prior to participation. At study enrollment, all participants were experiencing a MDE duration≥3 months with a Montgomery Asberg Depression Rating Scale (MAD RS) score≥24. All participants were free of psychotropic medications for at least 5 half-lives before baseline Visit 1. Participants were excluded if they had: 1) any Axis I diagnosis other than MDD, that was considered the primary diagnosis; 2) diagnosis of Bipolar Disorder Type I or II; 3) a significant Axis II diagnosis (borderline, antisocial); 4) high suicidal risk, 5) substance dependence/abuse in the past 6 months; 6) presence of significant neurological disorders, 7) head trauma, or 8) other unstable medical condition. Exclusionary criteria related to the medications included: having failed four or more adequate pharmacological interventions, having started psychological treatment within the past 3 months with the intent of continuing the treatment, previously having failed escitalopram treatment or showing intolerance to escitalopram, and being at risk for hypomanic switch (i.e. with a history of antidepressant induced hypomania). In addition, female participants who were pregnant or breastfeeding were excluded. […] The study period was eight weeks and participants were assessed with MADRS every 2 weeks starting from before administration of study medication (baseline). […]

[3] = Resting-state eyes closed EEG multi-scale entropy (MSE) during escitalopram treatment; assay type: in vivo, human
Protocol: Subjects were instructed to sit quietly in a testing room, while 8 minute of resting-state eyes closed EEG were recorded. Subjects were instructed to remain still, reduce eye blinks or movement to a minimum, and refrain from falling asleep.
Data were imported into MATLAB (The Math Works. Inc. Natick, MA, USA) for preprocessing. The open source EEGLAB toolbox version 12.0 (Delorme and Makeig, 2004) were used for data import. The EEG signals were epoched into segments of two seconds duration. Then a standardized custom-made and stream-lined open source software develop by our team, EEGERP toolbox (http:www.tmseeg.com/multisiteprojects), was used to preprocess the data in 6 steps as described elsewhere (Farzan et al., 2017). All data were brought down to sampling rate of 512 Hz for consistency across all sites, and average re-referenced in the final preprocessing step.
MSE was examined identical to a prior publication (Farzan et al., Brain 2016). […] First, for a given time series {xi,x2, . . . xN}, the multiple coarse-grained time series {y1^(τ), y2^(τ), . . . , yN^(τ)} at scale factor τ were calculated by averaging the data points within non-overlapping windows of increasing length τ. Each element of the coarse-grained time series yj^(τ), was calculated according to the equation:
[formula] […] Second, the degree of predictability was measured for each of the multiple coarse-grained time series {y1^(τ), y2^(τ), . . . , yN^(τ)} using SampleEn. SampleEn was calculated according to the equation: SampleEn(r,m,M)=−In(C(m+1)/C(m)) (2) where C(m) is the total number of pairs of in consecutive similar data points, C(m+1) is the total number of pairs of m+1 consecutive similar data points in the multiple coarse-grained time series. SampleEn quantifies the variability of time series by estimating the predictability of amplitude patterns across a time series. […] MSE was calculated for a 30 second continuous epoch.” […]

| Compound | Effect on excess complexity (Lempel-Ziv Complexity) in depression [1] | MADRS Post Week8 (mean +/− std) ([2]; All Groups (n = 95)) | MADRS Post Week8 (mean +/− std) ([2]; Non-responders (n = 50)) | MADRS Post Week8 (mean +/− std) ([2]; Responders (n = 45)) | Change in MSE pre (baseline) to post treatment (week 8) ([3]; non-responders) | Change in MSE at week 2 relative to pre treatment (baseline) ([3]; non-responders, scale factor>18, lateral frontal, fronto-temporal, parieto-occipital regions, clusters p<0.05) | Change in MSE pre (baseline) to post treatment (week 8) ([3]; responders, fronto-parietal brain regions, cluster p=0.09) |
| --- | --- | --- | --- | --- | --- | --- | --- |
| CN1CCN2c3ncccc3Cc3ccccc3C2C1 (stereo not shown) [mirtazapine] | normalized the excess complexity in depression |  |  |  |  |  |  |
| CN(C)CCC[C@@]1(c2ccc(F)cc2)OCc2cc(C#N)ccc21 [Escitalopram] |  | 15.4 +/− 9.7 | 22.3 +/− 7.18 | 7.62 +/− 5.24 | No significant changes | reduction of MSE in coarse time-scales | reduction of MSE in fine time-scales |
